One series concerns Caenorhabditis elegans. The experiment in a line: Insecticidal bioassay against Caenorhabditis elegans in 96-well plate. It counts as in vivo. Particulars: for LC50: Caenorhabditis elegans. Here is the method:
20 μL of 1 mg/mL methylmalonic acid aqueous solution was added to the 96-well plate, and at the same time, purified water was added; the final concentrations of the methylmalonic acid in the well plate was adjusted to […] in order; 40 nematodes were added to each well; and a bioassay system was 200 μL in total, with the purified water as a control. The process was repeated 3 times for each group. They were cultured in an incubator at 16° C.
20 μL of 1 mg/mL mixed aqueous solution of methylmalonic acid and betaine (mass ratio: 1:1) was added to the 96-well plate, and at the same time, purified water was added; the final concentrations of the compounded solution in the well plate was adjusted to 1000, 100, 25, 16.67, 12.5, 10, 1, 0.5, 0.25 μg/mL in order; and 40 nematodes were added to each well; a bioassay system was 200 μL in total, with the purified water as a control, and 3 times repeated for each group. They were cultured in an incubator at 16° C.

The test system of another series is Meloidogyne incognita. The experiment in a line: Insecticidal bioassay against root-knot nematodes in 96-well plate. The arrangement: Lethality Rate (%): dose or concentration left out as unconfirmed. The conditions noted are these: for LC50: Meloidogyne incognita.
The test system of the next series is fungal plant pathogens. Kind of series: Mycelium growth rate method, summary statement for all fungi tested. It counts as cell-based. The conditions noted are these: Example 5. The protocol:
(§1) The mycelia of fungal pathogens were picked and inoculated to a PDA medium for activation. With a mycelium growth rate method, 200 μg/mL methylmalonic acid mother liquid was prepared using sterile water; 4.5 mL of sterile water was added to 0.5 mL of the mother liquid and evenly mixed; fungal masses were picked and placed in a PDA culture medium plate center, and then cultured at 28° C. to observe the results, with the sterile water as a negative control. After the plate was fully covered with the control mycelia, the diameters of the control and treatment colonies were counted with a crossing method.
as §1, with “μg/mL mixed aqueous solution of” for “μg/mL”, “acid and betaine (mass ratio: 1:1)” for “acid mother liquid”, “the mixed solution” for “the mother liquid”

In the next series the test system is Corynespora cassiicola. The experiment in a line: Mycelium growth rate method, fungal plant pathogens. In kind it is cell-based. The conditions noted are these: 28° C. The arrangement: key: +: effective; −: ineffective. Here is the method:
as §1
as §1, with “μg/mL mixed aqueous solution of” for “μg/mL”, “acid and betaine (mass ratio: 1:1)” for “acid mother liquid”, “the mixed solution” for “the mother liquid”

The subject of a further series is Botrytis cinerea. Described as above. In kind it is cell-based. On the set-up: key: +: effective; −: ineffective. The conditions noted are these: 28° C. The protocol:
as §1
as §1, with “μg/mL mixed aqueous solution of” for “μg/mL”, “acid and betaine (mass ratio: 1:1)” for “acid mother liquid”, “the mixed solution” for “the mother liquid”

A further series deals with Rhizoctonia solani. Described as above. On the set-up: key: +: effective; −: ineffective. The conditions noted are these: 28° C. It counts as cell-based. The protocol: as §1
as §1, with “μg/mL mixed aqueous solution of” for “μg/mL”, “acid and betaine (mass ratio: 1:1)” for “acid mother liquid”, “the mixed solution” for “the mother liquid”

The next series deals with Pestalotiopsis theae. The series is described as above. The arrangement: key: +: effective; −: ineffective. Particulars: 28° C. It counts as cell-based. Here is the method:
as §1
as §1, with “μg/mL mixed aqueous solution of” for “μg/mL”, “acid and betaine (mass ratio: 1:1)” for “acid mother liquid”, “the mixed solution” for “the mother liquid”

The next series deals with Phytophthora capsici. The series is described as above. It counts as cell-based. The arrangement: key: +: effective; −: ineffective. The conditions noted are these: 28° C. The protocol:
as §1
as §1, with “μg/mL mixed aqueous solution of” for “μg/mL”, “acid and betaine (mass ratio: 1:1)” for “acid mother liquid”, “the mixed solution” for “the mother liquid”

The next series deals with Fusarium oxysporum. Described as above. It counts as cell-based. On the set-up: key: +: effective; −: ineffective. The conditions noted are these: 28° C. The protocol: as §1
as §1, with “μg/mL mixed aqueous solution of” for “μg/mL”, “acid and betaine (mass ratio: 1:1)” for “acid mother liquid”, “the mixed solution” for “the mother liquid”

The subject of a further series is Sclerotinia sclerotiorum. The series is described as above. Particulars: 28° C. The arrangement: key: +: effective; −: ineffective. It counts as cell-based. Here is the method: as §1
as §1, with “μg/mL mixed aqueous solution of” for “μg/mL”, “acid and betaine (mass ratio: 1:1)” for “acid mother liquid”, “the mixed solution” for “the mother liquid”

A further series concerns Alternaria solani. Described as above. In kind it is cell-based. On the set-up: key: +: effective; −: ineffective. Particulars: 28° C. Here is the method: as §1
as §1, with “μg/mL mixed aqueous solution of” for “μg/mL”, “acid and betaine (mass ratio: 1:1)” for “acid mother liquid”, “the mixed solution” for “the mother liquid”

The test system of another series is Xanthomonas campestris. The experiment in a line: Agar plate diffusion method, bacterial plant pathogens. It counts as cell-based. The conditions noted are these: 5 μL of 0.1 g/mL on 6 mm filter paper, 30° C.
In another series the test system is Erwinia carotovora. The description is as above. In kind it is cell-based.
The next series concerns Ralstonia solanacearum. It counts as cell-based.
The conditions of series [1]: water, alcohol, ether; cited from earlier work.
Where [2] appears, read: read-out: LC50 against the Meloidogyne incognita.
[3] abbreviates: read-out: LC50 value against the Meloidogyne incognita.
Where [4] appears, read: 200 μg/mL mother liquid, 0.5 mL + 4.5 mL sterile water, PDA.
Where [5] appears, read: Example 9: 200 μg/mL mixed aqueous solution of methylmalonic acid and betaine (1:1), 0.5 mL + 4.5 mL water.
Where [6] appears, read: 5 μL of 0.1 g/mL on 6 mm filter paper, 30° C.

Values after ≈ are worked out from the molar mass of the structure shown. Like-named read-outs stand apart in the source and are kept apart here.

In the case of `C[N+](C)(C)CC(=O)O` [betaine], the LC50 with Caenorhabditis elegans (text of Examples 3 and 7, read-out: LC50 against the Caenorhabditis elegans) came to 14.8 µg/mL; with Meloidogyne incognita (setting [2]), 75.2 µg/mL; with Meloidogyne incognita (setting [3]), 75.2 µg/mL.
Consider `CC(C(=O)O)C(=O)O` [methylmalonic acid], for which the “microbicidal activity against the fungal plant pathogens” value in the series with fungal plant pathogens is recorded as “showed no microbicidal activity”. For the same molecule, the LC50 stood at 1.2 µg/mL (≈ 10.2 µM) with Caenorhabditis elegans (16° C., table value, read-out: Medial Lethal Concentration (LC50, ug/mL)); 1.2 µg/mL (≈ 10.2 µM) with Caenorhabditis elegans (read-out: LC50 value against the Caenorhabditis elegans, text of Example 3); 13.1 µg/mL (≈ 111 µM) in the series with Meloidogyne incognita (setting [2]); 13.1 µg/mL (≈ 111 µM) in the series with Meloidogyne incognita (setting [3]); 13.1 µg/mL (≈ 111 µM) with Meloidogyne incognita (read-out: Medial Lethal Concentration (LC50, ug/mL)). The “Lethality Rate (%)” value in the series with Caenorhabditis elegans (Dose 1 pg/mL) came out at 18.4%; with Caenorhabditis elegans (Dose 10 pg/mL), 70.0%; in the series on Caenorhabditis elegans (Dose 16.67 pg/mL), 94.9%; in the series on Caenorhabditis elegans (Dose 25 pg/mL), 90.5%; in the series with Caenorhabditis elegans (Dose 100 pg/mL) it was 97.4%; with Caenorhabditis elegans (Dose 1000 pg/mL) it was 97.5%. The “Lethality Rate (%)” value in the series with Meloidogyne incognita (Dose 1) is listed as 8.1%; with Meloidogyne incognita (Dose 10), 12.5%; in the series with Meloidogyne incognita (Dose 12.5), 29.3%; in the series on Meloidogyne incognita (Dose 16.67), 76.3%; in the series with Meloidogyne incognita (Dose 25), 81.1%; in the series with Meloidogyne incognita (Dose 50), 80%. In addition, the entries for the “Lethality Rate (%)” value in the series with Meloidogyne incognita (Dose 100) and in the series on Meloidogyne incognita (Dose 1000) were 97.5% and 97.4%, respectively. Moreover, the “Microbicidal Effect” value in the series on Corynespora cassiicola (setting [4]), with Corynespora cassiicola (setting [5]), with Botrytis cinerea (setting [4]), in the series on Botrytis cinerea (setting [5]), in the series on Rhizoctonia solani (setting [4]) and in the series on Rhizoctonia solani (setting [5]) was “−” each time. Besides, the “Microbicidal Effect” value in the series on Pestalotiopsis theae (setting [4]), with Pestalotiopsis theae (setting [5]), in the series with Phytophthora capsici (setting [4]), in the series with Phytophthora capsici (setting [5]), in the series on Fusarium oxysporum (setting [4]) and in the series with Fusarium oxysporum (setting [5]) was “−” throughout. Further, the “Microbicidal Effect” value was “−” in the series with Sclerotinia sclerotiorum (setting [4]); “−” in the series with Sclerotinia sclerotiorum (setting [5]); “−” with Alternaria solani (setting [4]); “−” in the series with Alternaria solani (setting [5]); “−” in the series with Xanthomonas campestris; “+ (with microbicidal activity, the diameter of an inhibition zone being less than 10 mm)” with Erwinia carotovora (setting [6]). Further, the “Microbicidal Effect” value with Ralstonia solanacearum (setting [6]) was “++ (with microbicidal activity, and the diameter of an inhibition zone being more than 10 mm)”. Besides, the “Diameter of Inhibition Zone” value was determined as 0 mm with Xanthomonas campestris, 6.9 mm in the series with Erwinia carotovora (setting [6]) and 12 mm with Ralstonia solanacearum (setting [6]). The “microbicidal activity against the Erwinia carotovora” value in the series with Erwinia carotovora (5 μL of 0.1 g/mL, Example 4) is reported as “showed a microbicidal activity”. Further, the “microbicidal activity against the Pseudomonas solanacearum” value in the series on Ralstonia solanacearum (5 μL of 0.1 g/mL, Example 4) is “showed a microbicidal activity”. Besides, the “solubility (physical properties)” value in [1] was “soluble in water, alcohol and ether”.

Values taken from patent publication US11723360B2 (priority 2018, dated 2023).
